Common to all, as to assay: DTP human tumour cell line panel, 48 h
The subject of test [1] is LOX IMVI melanoma.
Test [2] deals with HOP-92 NSCLC.
The subject of test [3] is U251 CNS.
Test [4] deals with RXF 393 renal.
The test system of test [5] is K-562 leukemia.
For test [6], the system named is NCI-H226 lung.
Test [7] relates to HOP-62 NSCLC.
Test [8] has as its system SK-OV-3 ovarian.
The test system of test [9] is SF-295 CNS.
Test [10] deals with SW-620 colon.

“And” between values parts separate entries of the source, which are not always exact repeats. Equal entries are not always repeated.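 Test compounds were applied to cells in 96-well plates for 48 hours at 5 doses. GI50 is the concentration that inhibits growth by half. The concentration for full growth arrest is given as TGI.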 Where only a bound is given, the exact number is not on record here.

As a reminder, the GI50 is the concentration that inhibits growth by half. What is called TGI is the concentration at which net growth stops. Read a high TGI as lower sensitivity of the cells. As to `CC1(C)CC(n2cnc(-c3ccc(F)cc3)c2-c2ccnc(N)n2)CC(C)(C)N1`, the GI50 was > 19.7 µM in test [1]; 7.19 µM in [2]; > 20.1 µM in test [3]; > 24.1 µM in test [4]; > 24.1 µM in [5]; > 13.9 µM in test [6]. Further, the GI50 in test [7] was > 16.8 µM; in [8], 23.6 µM; in test [9] it was > 25 µM; in test [10], 12.1 µM. For the same compound, the TGI in test [1], in test [2], in test [3], in [4], in test [5] and in test [6] was > 25 µM each time. In addition, the TGI in test [7], in [8], in test [9] and in [10] was > 25 µM in each case.
With `Cc1cc(I)cc(CN(C)CCN2CCCC2)c1O`, the GI50 is 17.8 µM in [1]; 16.8 µM in test [2]; 31.5 µM in [3]; 20.7 µM in test [4]; 8.53 µM in [5]; 47.9 µM in [6]. Also, the GI50 is 24.1 µM in [7], 37.9 µM in test [8], 13.1 µM in test [9] and 23.2 µM in [10]. Moreover, the TGI in test [1] is 35.2 µM; in [2], 68.1 µM; in [3], > 95.8 µM; in [4], 63.6 µM; in test [5] it was 26.4 µM; in test [6], > 100 µM. Moreover, the TGI in [7] was 87.5 µM; in test [8], > 100 µM; in [9] it was 36.6 µM; in [10], 60 µM.
With `O=C1c2cc([N+](=O)[O-])ccc2-c2cccc(F)c21`, the TGI in [1], in [2], in [3], in test [4], in [5] and in [6] was > 100 µM in each case. Further, the TGI in test [7], in test [8], in test [9] and in test [10] was > 100 µM throughout.
Regarding `C=CCC(C(=O)O)c1ccccc1` (configuration not stated), the TGI in [1], in test [2], in test [3], in test [4], in test [5] and in test [6] was > 100 µM in each case. For the same compound, the TGI in test [7], in test [8], in test [9] and in [10] was > 100 µM in each case.
For `CC(=O)N/C(=C\c1cccc([N+](=O)[O-])c1)c1nc2c3c(ccc2[nH]1)C(=O)c1ccccc1C3=O`, the TGI in test [1], in test [2], in test [3], in test [4], in test [5] and in test [6] was > 100 µM throughout. For the same compound, the TGI in test [7], in test [8], in [9] and in test [10] was > 100 µM throughout.
With `NC(=S)N/N=C(\C(=O)Nc1cccc([N+](=O)[O-])c1)c1nc2ccc([N+](=O)[O-])cc2[nH]c1=O`, the TGI in test [1], in test [2], in test [3], in [4], in [5] and in test [6] was > 100 µM throughout. The total growth inhibition concentration (TGI) in test [7], in test [8], in test [9] and in test [10] was > 100 µM in each case.
`CCN(CC)CCNC(=O)c1nn(C)c(=S)[nH]c1=S`: the TGI in test [1], in [2], in [3], in test [4], in [5] and in [6] was > 100 µM throughout. For the same compound, the TGI in [7], in [8], in test [9] and in test [10] was > 100 µM in each case.
`Cc1ccc(-c2nc(N)nc3c2nnn3Cc2cccc(CO[C@H]3CCOC3)n2)o1`: the GI50 in test [1], in test [2], in test [3], in test [4], in test [5] and in test [6] was > 100 µM in each case. Further, the GI50 in [7], in test [8], in test [9] and in test [10] was > 100 µM in each case. Also, the TGI in [1], in test [2], in [3], in [4], in test [5] and in test [6] was > 100 µM each time. Also, the TGI in test [7], in [8], in test [9] and in [10] was > 100 µM each time.
Regarding `O=C1NC(=S)NC(=O)C1=Cc1cccc2cc3ccccc3cc12`, the TGI in test [1] was 4.49 µM; in test [2] it was 3.76 µM; in test [3], 3.36 µM; in [4], 3.53 µM; in test [5], > 24 µM; in test [6] it was 4.62 µM. The TGI in test [7] was 4.16 µM; in test [8], 8.79 µM; in test [9] it was 7.19 µM; in test [10] it was > 25.2 µM.
Consider `COc1ccc2c(c1)OC1=C(C(=O)OC1)C2c1cc(OC)c(OC)c(OC)c1` (configuration not stated), for which the GI50 was 0.608 µM in test [1]; 3.99 µM in test [2]; 0.456 µM in [3]; 0.231 µM in [4]; 0.199 µM in [5]; 0.441 µM in test [6]. Also, the GI50 in [7] is 0.545 µM; in test [8] it was 0.392 µM; in test [9], 0.279 µM; in test [10], 0.334 µM. Moreover, the total growth inhibition concentration (TGI) in test [1] is > 100 µM; in test [2], > 100 µM; in [3] it was > 100 µM; in test [4], 0.735 µM; in test [5], > 100 µM; in [6], 5.99 µM. Further, the TGI in [7] is > 100 µM; in [8], > 49.5 µM; in test [9], > 100 µM; in test [10], > 100 µM.
`CC(=O)/C(=C\C1=CCCO1)C(=O)Nc1ccccc1C`: the TGI in [1], in [2], in test [3], in [4], in [5] and in [6] was > 100 µM throughout. Besides, the TGI in test [7], in [8], in test [9] and in [10] was > 100 µM throughout.
As for `COc1ccc2cc3[n+](cc2c1OC)CCc1cc(O)c(O)cc1-3`, the TGI in test [1], in test [2], in test [3], in [4], in [5] and in test [6] was > 100 µM each time. Further, the TGI in [7], in test [8], in test [9] and in test [10] was > 100 µM each time.
As to `COc1ccc(C(=O)OC2C=COC(C)C2OC(=O)c2ccc(OC)cc2)cc1` (configuration not stated), the TGI in test [1] was 29.8 µM; in test [2], 37.1 µM; in [3], 97.9 µM; in [4], 20.9 µM; in [5] it was 63.9 µM; in [6], > 100 µM. For the same compound, the TGI in test [7] was > 100 µM; in test [8] it was > 100 µM; in test [9], > 100 µM; in [10], 35.1 µM.
With `Nc1cc(-c2cccc(OC(F)(F)F)c2)nc2ccc(N3CCCC3)cc12`, the GI50 in test [1] was 0.0528 µM and 0.0485 µM and 0.046 µM; in [2] it was 0.0888 µM and 0.184 µM and 0.0868 µM; in [3], 0.041 µM and 0.0391 µM and 0.0371 µM; in test [4], 0.0474 µM and 0.0376 µM and 0.0305 µM; in [5] it was 0.0298 µM and 0.0175 µM and 0.0176 µM; in test [6], 0.238 µM and 0.237 µM. Further, the GI50 in [7] was 0.0463 µM and 0.0508 µM and 0.0489 µM; in test [8] it was 0.071 µM and 0.0456 µM and 0.0406 µM; in test [9], 0.0584 µM and 0.0473 µM and 0.0448 µM; in [10] it was 0.0435 µM and 0.0413 µM and 0.0366 µM. Besides, the TGI in test [2] is 18.2 µM and > 100 µM and 74.2 µM; in [4], 16.4 µM and > 100 µM and > 53.5 µM; in test [6], > 100 µM; in test [7], 22 µM and > 100 µM; in [8] it was > 100 µM; in test [9], 5.61 µM and 18.9 µM and > 50.5 µM. For the same compound, the TGI in test [10] is 22.1 µM and > 100 µM.
Consider `COC(=O)C12C3C4C5C3(C#N)C1C5(C(=O)OC)C42C(=O)N(C(C)C)C(C)C` (configuration not stated), for which the TGI was > 100 µM in test [1]; > 100 µM in [2]; > 100 µM in test [3]; > 100 µM in [4]; > 73.8 µM in test [5]; > 100 µM in test [6]. The concentration for total growth inhibition (TGI) is > 100 µM in test [7], > 100 µM in test [8], > 100 µM in test [9] and > 65.3 µM in [10].
In the case of `CCOC(=O)C1=C(Nc2ccc(Cl)cc2Cl)OC/C1=N\NS(=O)(=O)c1ccc(C)cc1`, the TGI in test [1], in test [2], in test [3], in [4], in [5] and in [6] was > 100 µM each time. Further, the TGI in [7], in [8], in [9] and in [10] was > 100 µM in each case.
As to `Nc1nc(=S)[nH]c(C(=O)Nc2ccc(Cl)c(Cl)c2)c1-c1ccc(Cl)cc1`, the TGI in [1], in test [2], in [3], in [4], in test [5] and in test [6] was > 100 µM each time. The TGI in test [7], in test [8], in [9] and in test [10] was > 100 µM in each case.
Take `Cc1cc(N2CCN(c3ccnc4cc(Cl)ccc34)CC2)nc(NC2CCCCC2)n1`: the GI50 is 1.73 µM in test [1]; 1.08 µM in [2]; 1.72 µM in test [3]; 1.71 µM in [4]; 2.1 µM in test [5]; 3.23 µM in [6]. Also, the GI50 was 2.02 µM in test [7], 2.02 µM in test [8], 1.72 µM in test [9] and 1.87 µM in [10]. Also, the TGI was 3.19 µM in test [1]; 3.04 µM in [2]; 3.37 µM in test [3]; 3.79 µM in test [4]; 5.64 µM in test [5]; 15 µM in test [6]. In addition, the TGI in test [7] turned out to be 4.61 µM; in test [8], 4.51 µM; in test [9], 3.49 µM; in [10], 4.35 µM.
Turning to `O=C(Nc1ccc(F)cc1F)c1cc(Br)ccc1O`, the GI50 in test [1] was 2.91 µM; in test [2] it was 0.593 µM; in [3] it was 2.78 µM; in [4] it was 2.4 µM; in [5], 2.42 µM; in [6], 2.62 µM. Also, the GI50 in test [7] was 2.69 µM; in [8] it was 0.53 µM; in test [9] it was 1.9 µM; in [10], 3.06 µM. Moreover, the TGI is 21.2 µM in test [1]; 3.9 µM in test [2]; > 100 µM in test [3]; 7.03 µM in test [4]; > 100 µM in test [5]; 23.8 µM in [6]. Also, the TGI in [7] was 12.7 µM; in test [8], 3.5 µM; in test [9], 3.76 µM; in test [10], 55.9 µM.
On to `COc1cccc(-c2nc3sccn3c2-c2ccnc(NCCNS(=O)(=O)c3ccccc3)c2)c1`, for which the GI50 in test [1] was 3.01 µM; in [2] it was 0.596 µM; in [3], 3.9 µM; in test [4], 2.11 µM; in test [5], 1.46 µM; in [6] it was 2.48 µM. Moreover, the GI50 in test [7] is 4.24 µM; in test [8] it was 5.11 µM; in test [9], 2.62 µM; in test [10] it was 4.3 µM. Further, the TGI in test [1] is 84.1 µM; in test [2] it was 33.6 µM; in [3], > 100 µM; in [4], > 100 µM; in test [5], > 100 µM; in test [6], 10.5 µM. Further, the TGI in test [7] was 67.1 µM; in [8], > 100 µM; in test [9], > 100 µM; in test [10] it was > 100 µM.
